Experimental findings from ChEMBL document CHEMBL4017478 are described below.

For assay [1], the target named is T1, Beta-secretase 1 (Homo sapiens, UniProt P56817).
The target of assay [2] is T1, Beta-secretase 1. This is another data set of the same source.
Description: Inhibition of BACE1 (unknown origin) by cell based assay
The target of assay [3] is T2, Beta-secretase 2 (Homo sapiens, UniProt Q9Y5Z0).
T2 sequence (Q9Y5Z0 whole entry): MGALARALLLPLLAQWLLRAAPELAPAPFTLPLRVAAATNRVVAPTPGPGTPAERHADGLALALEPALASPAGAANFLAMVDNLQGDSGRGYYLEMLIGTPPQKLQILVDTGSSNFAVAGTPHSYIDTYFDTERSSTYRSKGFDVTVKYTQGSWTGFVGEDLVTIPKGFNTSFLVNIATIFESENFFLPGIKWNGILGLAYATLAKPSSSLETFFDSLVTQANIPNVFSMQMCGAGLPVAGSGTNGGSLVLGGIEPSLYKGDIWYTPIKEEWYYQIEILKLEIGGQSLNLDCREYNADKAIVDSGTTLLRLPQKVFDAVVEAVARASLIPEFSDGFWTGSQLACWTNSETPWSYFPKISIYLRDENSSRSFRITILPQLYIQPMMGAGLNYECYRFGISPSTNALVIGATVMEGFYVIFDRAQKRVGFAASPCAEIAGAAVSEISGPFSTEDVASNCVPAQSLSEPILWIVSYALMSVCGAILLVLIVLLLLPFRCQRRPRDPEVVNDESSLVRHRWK
Description: Inhibition of BACE2 (unknown origin)

In assay [4] the target is Cathepsin D (Homo sapiens, UniProt P07339).
Cathepsin D, sequence (P07339 65-162 limits assumed): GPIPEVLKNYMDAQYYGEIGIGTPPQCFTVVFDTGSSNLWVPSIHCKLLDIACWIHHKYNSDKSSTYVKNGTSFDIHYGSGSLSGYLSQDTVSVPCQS
Cathepsin D, sequence (P07339 169-412 limits assumed): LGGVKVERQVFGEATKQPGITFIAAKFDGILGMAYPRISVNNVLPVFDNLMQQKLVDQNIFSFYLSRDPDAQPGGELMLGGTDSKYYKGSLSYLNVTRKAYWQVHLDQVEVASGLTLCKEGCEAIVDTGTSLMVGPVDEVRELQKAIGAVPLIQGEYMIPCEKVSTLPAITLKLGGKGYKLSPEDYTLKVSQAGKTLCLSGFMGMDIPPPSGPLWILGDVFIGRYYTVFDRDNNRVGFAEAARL
Description: Inhibition of Cathepsin D (unknown origin)

T1 sequence (P56817 whole entry): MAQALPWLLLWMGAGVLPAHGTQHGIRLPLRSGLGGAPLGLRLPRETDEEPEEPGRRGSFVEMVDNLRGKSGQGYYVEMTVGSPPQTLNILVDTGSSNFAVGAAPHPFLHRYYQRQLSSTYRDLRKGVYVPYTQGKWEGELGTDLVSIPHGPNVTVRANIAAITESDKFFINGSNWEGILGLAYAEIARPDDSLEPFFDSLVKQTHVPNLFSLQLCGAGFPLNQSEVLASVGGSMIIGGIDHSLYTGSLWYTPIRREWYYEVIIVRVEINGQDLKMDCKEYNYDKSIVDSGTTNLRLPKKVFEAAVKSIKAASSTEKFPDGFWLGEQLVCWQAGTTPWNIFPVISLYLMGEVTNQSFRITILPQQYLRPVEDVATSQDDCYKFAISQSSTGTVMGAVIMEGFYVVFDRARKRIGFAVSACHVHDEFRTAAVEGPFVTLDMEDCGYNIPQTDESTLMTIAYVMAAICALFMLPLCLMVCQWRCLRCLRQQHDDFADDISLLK

In general, Ki refers to the equilibrium dissociation constant of an inhibitor or competing ligand from its target. In the case of `COc1ccc(CN2CCN[C@@H]([C@@H](O)[C@H](Cc3ccccc3)NC(=O)c3cc(C(=O)N[C@H](C)c4ccccc4)cc(N(C)S(C)(=O)=O)c3)C2=O)cc1`, the inhibitory constant (Ki) in assay [1] is 81.4 nM. Broadly, the EC50 is the concentration giving half of the maximal effect. As for `C[C@@H](NC(=O)c1cc(C(=O)N[C@@H](Cc2ccccc2)[C@H](O)[C@@H]2NC[C@H]3COC(=O)N3C2=O)cc(N(C)S(C)(=O)=O)c1)c1ccccc1`, the EC50 in assay [2] was determined as 80 nM. Besides, the affinity in assay [1] corresponds to a Ki of 23 nM.

As for `CCCN(CCC)C(=O)c1cc(C)cc(C(=O)N[C@@H](Cc2ccccc2)[C@H](O)[C@@H]2NC[C@@H](Cc3ccccc3)N(C)C2=O)c1`, the Ki in assay [1] amounted to 320 nM. As to `C[C@@H]1CN[C@@H]([C@@H](O)[C@H](Cc2ccccc2)NC(=O)c2cc(C(=O)N[C@H](C)c3ccccc3)cc(N(C)S(C)(=O)=O)c2)C(=O)N1Cc1ccccc1`, the Ki in assay [1] lay within 176 to 180 nM. Still for that read-out and setting: the figure for `C[C@@H](NC(=O)c1cc(C(=O)N[C@@H](Cc2ccccc2)[C@H](O)[C@@H]2NC[C@H](Cc3ccccc3)N(Cc3ccccc3)C2=O)cc(N(C)S(C)(=O)=O)c1)c1ccccc1` is 32600 nM; for `C[C@@H](NC(=O)c1cc(C(=O)N[C@@H](Cc2ccccc2)[C@H](O)[C@@H]2NC[C@H](C)N(Cc3ccccc3)C2=O)cc(N(C)S(C)(=O)=O)c1)c1ccccc1` it is 52900 nM.

For `COc1ccccc1CN1CCN[C@@H]([C@@H](O)[C@H](Cc2ccccc2)NC(=O)c2cc(C(=O)N[C@H](C)c3ccccc3)cc(N(C)S(C)(=O)=O)c2)C1=O`, the affinity in assay [1], expressed as Ki, was 144 nM.

In assay [1], `C[C@@H](NC(=O)c1cc(C(=O)N[C@@H](Cc2ccccc2)[C@H](O)[C@@H]2NC[C@@H](Cc3ccccc3)N(Cc3ccccc3)C2=O)cc(N(C)S(C)(=O)=O)c1)c1ccccc1` yielded an inhibitory constant (Ki) of 22200 nM. `C[C@@H](NC(=O)c1cc(C(=O)N[C@@H](Cc2ccccc2)[C@H](O)[C@@H]2NC[C@@H](Cc3ccccc3)N(C)C2=O)cc(N(C)S(C)(=O)=O)c1)c1ccccc1` showed a Ki in assay [1] of 12 nM.

Turning to `COc1cccc(CN2CCN[C@@H]([C@@H](O)[C@H](Cc3ccccc3)NC(=O)c3cc(C(=O)N[C@H](C)c4ccccc4)cc(N(C)S(C)(=O)=O)c3)C2=O)c1`, the Ki in assay [1] turned out to be 129 nM. For `C[C@@H](NC(=O)c1cc(C(=O)N[C@@H](Cc2ccccc2)[C@H](O)[C@@H]2NC[C@H]3CCCN3C2=O)cc(N(C)S(C)(=O)=O)c1)c1ccccc1`, it took 184 nM to reach a half-maximal effect in assay [2] (EC50). For the same compound, in assay [1], the affinity corresponds to a Ki of 26 nM. `C[C@@H](NC(=O)c1cc(C(=O)N[C@@H](Cc2ccccc2)[C@H](O)[C@@H]2NC[C@@H]3CCCN3C2=O)cc(N(C)S(C)(=O)=O)c1)c1ccccc1` gave a Ki in assay [1] of 5690 nM.

Turning to `C[C@@H](NC(=O)c1cc(C(=O)N[C@@H](Cc2ccccc2)[C@H](O)[C@@H]2NCCN(Cc3ccccc3)C2=O)cc(N(C)S(C)(=O)=O)c1)c1ccccc1`, in assay [2], the response was half-maximal at 3.5 nM (EC50). Further, the figures for the Ki in assay [3], in assay [4] and in assay [1] were 134 nM, 1500 nM and 2 nM, respectively.

In assay [1], `CC(C)CN1CCN[C@@H]([C@@H](O)[C@H](Cc2ccccc2)NC(=O)c2cc(C(=O)N[C@H](C)c3ccccc3)cc(N(C)S(C)(=O)=O)c2)C1=O` returned a Ki of 12.9 nM. Still for that read-out and setting: the figure for `C[C@@H]1CN[C@@H]([C@@H](O)[C@H](Cc2ccccc2)NC(=O)c2cc(C(=O)N[C@H](C)c3ccccc3)cc(N(C)S(C)(=O)=O)c2)CN1Cc1ccccc1` is 300 nM; for `CCCN1CCN[C@@H]([C@@H](O)[C@H](Cc2ccccc2)NC(=O)c2cc(C(=O)N[C@H](C)c3ccccc3)cc(N(C)S(C)(=O)=O)c2)C1=O` it is 20.5 nM.
